The values below come from patent US20080233132A1, “MULTIPLE SCLEROSIS THERAPY” (priority 2006, published 2008).

In experiment [1] the test system is EAE. The note with it: Sanna et al. 2006; cited from earlier work.
The next experiment concerns MS patients. The note with it: some, but not all, onsets approximately six months following the onset of therapy; cited from earlier work.
A further experiment deals with CD4+ T cells. Put plainly: cell-culture assay of T cell proliferation and Th1 differentiation. Type of experiment: cell-based.
For a further experiment, the system named is EAE animals. Put plainly: LY411575 injected into EAE animals. Type of experiment: in vivo. The method, then:
When LY411575 was injected into EAE animals, the severity of EAE was decreased.

The subject of a further experiment is T cells. As to conditions: Minter et al. 2005; cited from earlier work.
The subject of experiment [2] is EAE. The note with it: injected prior to disease onset; Minter et al. 2005; cited from earlier work.
A further experiment deals with aged rats. The note with it: total dose infused i.v.=1 ug, Fischer et al. 1987; cited from earlier work.
Experiment [3] deals with T1, γ-secretase (Homo sapiens, UniProt P49768). The note with it: recombinant APP C100 substrate; Takahashi et al. 2003; cited from earlier work.
The target in experiment [4] is T1, γ-secretase. The note with it: displacement assay; cited from earlier work.

Take glatiramer acetate [GA]: the “progression of EAE” value in the experiment with EAE [1] is listed as “block progression”. In the experiment on MS patients, the clinical relapses entry was “modest reduction”.

As for `C[C@H](NC(=O)[C@@H](O)c1cc(F)cc(F)c1)C(=O)N[C@@H]1C(=O)N(C)c2ccccc2-c2ccccc21` [LY411575], in the experiment on CD4+ T cells, the “amount of T cell differentiation of the inflammatory Th1 subset of CD4+ T cells” value is recorded as “decreased” and the “effect on T cell proliferation” value is “no observed effect”. Further, the “severity of EAE” value in the experiment with EAE animals was “decreased”. Also, in the experiment with T cells, the “Th1 differentiation in vitro” value is given as “decreased” and the “effect on T cell proliferation” value was “no effect”. Besides, in the experiment with EAE [2], the “severity of EAE” value is “lessened”.

Turning to NGF: nerve growth factor, the “cholinergic neuron atrophy and spatial memory impairment” value with aged rats is on record as “ameliorate”.

`CSc1ccc(/C=C2/C(C)=C(CC(=O)O)c3cc(F)ccc32)cc1` [sulindac sulfide]: the γ-secretase activity result on γ-secretase [3] is given as “preferentially inhibits”.

Take `C[C@H](NC(=O)Cc1cc(F)cc(F)c1)C(=O)N[C@H](C(=O)OC(C)(C)C)c1ccccc1` [DAPT]: the “competition for the γ-secretase active site” value at γ-secretase [4] is on record as “compete moderately”.
